Earlier results in US8357679B2, “Hexafluoroisopropanol derivatives” (MSD Oss B.V., priority 2008, dated 2013).

How the values were obtained:
[1] = tested on: vascular smooth muscle cell; conditions: in vitro
[2] = in vivo
[3] = tested on: tumours; conditions: animal model of prostate cancer
[4] = in vivo; remark: listed apart in the source

## O=S(=O)(c1ccccc1)N(CC(F)(F)F)c1ccc(C(O)(C(F)(F)F)C(F)(F)F)cc1 [Example T0901317, T0901317]
[1]
  vascular smooth muscle cell proliferation: inhibit
[2]
  neointima formation following balloon injury: inhibit
[3]
  progression of tumours: delayed progression of tumours
[4]
  deposition of β-amyloid: lower deposition of β-amyloid
  memory: improve memory
